Assay results taken from PubChem BioAssay (NCI).
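How tested: cells in 96-well plates exposed to compound for 48 hours at five concentrations. GI50 = concentration required for 50% inhibition of growth. The concentration for full growth arrest is given as TGI.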

Columns and labels:
Experiment in all cases: growth of human tumour cells (NCI), 48 h
[1] = test system: 786-0 renal
[2] = test system: A498 renal
[3] = test system: A549 NSCLC
[4] = test system: BT-549 breast
[5] = test system: CCRF-CEM leukemia
[6] = test system: COLO 205 colon
[7] = test system: DU-145 prostate
[8] = test system: EKVX NSCLC
[9] = test system: HCC-2998 colon
[10] = test system: HCT-116 colon
[11] = test system: HCT-15 colon
[12] = test system: HL-60(TB) leukemia
[13] = test system: HOP-62 NSCLC
[14] = test system: HOP-92 NSCLC
[15] = test system: HS 578T breast
[16] = test system: HT29 colon
[17] = test system: IGROV1 ovarian
[18] = test system: K-562 leukemia
[19] = test system: KM12 colon
[20] = test system: LOX IMVI melanoma
[21] = test system: M14 melanoma
[22] = test system: MALME-3M melanoma
[23] = test system: MCF7 breast
[24] = test system: MDA-MB-231 breast
[25] = test system: MDA-MB-435
[26] = test system: MOLT-4 leukemia
[27] = test system: NCI-H226 lung
[28] = test system: NCI-H23 lung
[29] = test system: NCI-H460 lung
[30] = test system: NCI-H522 lung
[31] = test system: NCI/ADR-RES ovarian
[32] = test system: OVCAR-3 ovarian
[33] = test system: OVCAR-4 ovarian
[34] = test system: OVCAR-5 ovarian
[35] = test system: OVCAR-8 ovarian
[36] = test system: PC-3 prostate
[37] = test system: RPMI-8226 leukemia
[38] = test system: RXF 393 renal
[39] = test system: SF-268 CNS
[40] = test system: SF-295 CNS
[41] = test system: SF-539 CNS
[42] = test system: SK-MEL-2 melanoma
[43] = test system: SK-MEL-28 melanoma
[44] = test system: SK-MEL-5 melanoma
[45] = test system: SK-OV-3 ovarian
[46] = test system: SN12C renal
[47] = test system: SNB-19 CNS
[48] = test system: SNB-75 CNS
[49] = test system: SR leukemia
[50] = test system: SW-620 colon
[51] = test system: T-47D breast
[52] = test system: TK-10 renal
[53] = test system: U251 CNS
[54] = test system: UACC-257 melanoma
[55] = test system: UACC-62 melanoma
[56] = test system: UO-31 renal

c1ccc(-c2n(Cc3ccc4ccccc4n3)cc[n+]2Cc2ccc3ccccc3n2)cc1 was tested, and the GI50 [1] was 5.45 µM, the TGI [1] was 18.5 µM and the GI50 [2] was 1.81 µM. The TGI [2] was 10.1 µM, the GI50 [3] was 13.5 µM and the TGI [3] was 51.1 µM. The GI50 [4] was 1.65 µM, the TGI [4] was 8.48 µM and the GI50 [5] was 2.9 µM. For the same molecule, the TGI [5] was 14.7 µM, the GI50 [6] was 1.41 µM and the TGI [6] was 4.05 µM. The GI50 [7] was 4.29 µM, the TGI [7] was 18.5 µM and the GI50 [8] was 2.91 µM. The TGI [8] was 31.4 µM, the GI50 [9] was 1.93 µM and the TGI [9] was 11.7 µM. The GI50 [10] was 2.06 µM, the TGI [10] was 11.4 µM and the GI50 [11] was 20.2 µM. For the same molecule, the TGI [11] was 85.6 µM, the GI50 [12] was 0.399 µM and the TGI [12] was 1.7 µM. It also gave a GI50 [13] of 5.66 µM, a TGI [13] of 20.8 µM and a GI50 [14] of 0.269 µM. It also gave a TGI [14] of 2.47 µM, a GI50 [15] of 2.76 µM and a TGI [15] of 14.3 µM. For the same molecule, the GI50 [16] was 2.39 µM, the TGI [16] was 11.5 µM and the GI50 [17] was 1.87 µM. The TGI [17] was 16.4 µM, the GI50 [18] was 0.754 µM and the TGI [18] was 13.6 µM. For the same molecule, the GI50 [19] was 1.76 µM, the TGI [19] was 10.5 µM and the GI50 [20] was 2.35 µM. It also gave a TGI [20] of 10.8 µM, a GI50 [21] of 2.35 µM and a TGI [21] of 11.5 µM. It also gave a GI50 [22] of 1.57 µM, a TGI [22] of 8.02 µM and a GI50 [23] of 1.87 µM. For the same molecule, the TGI [23] was 11.1 µM, the GI50 [24] was 1.69 µM and the TGI [24] was 8.58 µM. For the same molecule, the GI50 [25] was 1.8 µM, the TGI [25] was 10.2 µM and the GI50 [26] was 4.24 µM. It also gave a TGI [26] of 17.2 µM, a GI50 [27] of 1.76 µM and a TGI [27] of 9.72 µM. The GI50 [28] was 1.23 µM, the TGI [28] was 9.58 µM and the GI50 [29] was 2.49 µM. The TGI [29] was 11.9 µM, the GI50 [30] was 1.92 µM and the TGI [30] was 8.72 µM. For the same molecule, the GI50 [31] was over 100 µM, the TGI [31] was over 100 µM and the GI50 [32] was 1.05 µM. The TGI [32] was 12.1 µM, the GI50 [33] was 0.709 µM and the TGI [33] was 7.02 µM. For the same molecule, the GI50 [34] was 5 µM, the TGI [34] was 21.5 µM and the GI50 [35] was 3.25 µM. It also gave a TGI [35] of 13.9 µM, a GI50 [36] of 2.64 µM and a TGI [36] of 12.1 µM. It also gave a GI50 [37] of 0.269 µM, a TGI [37] of 5.09 µM and a GI50 [38] of 2.8 µM. The TGI [38] was 14 µM, the GI50 [39] was 3.32 µM and the TGI [39] was 14.7 µM. The GI50 [40] was 3.22 µM, the TGI [40] was 14.5 µM and the GI50 [41] was 2.92 µM. The TGI [41] was 13.2 µM, the GI50 [42] was 1.96 µM and the TGI [42] was 5.96 µM. For the same molecule, the GI50 [43] was 0.983 µM, the TGI [43] was 12.9 µM and the GI50 [44] was 0.542 µM. It also gave a TGI [44] of 1.85 µM, a GI50 [45] of 3.39 µM and a TGI [45] of 11.8 µM. The GI50 [46] was 2.25 µM, the TGI [46] was 11.2 µM and the GI50 [47] was 2.18 µM. For the same molecule, the TGI [47] was 13.1 µM, the GI50 [48] was 1.33 µM and the TGI [48] was 5.07 µM. It also gave a GI50 [49] of 1.29 µM, a TGI [49] of 13.2 µM and a GI50 [50] of 2.65 µM. It also gave a TGI [50] of 14.5 µM, a GI50 [51] of 0.498 µM and a TGI [51] of 7.77 µM. The GI50 [52] was 5.38 µM, the TGI [52] was 18.3 µM and the GI50 [53] was 2.66 µM. For the same molecule, the TGI [53] was 12.4 µM, the GI50 [54] was 1.01 µM and the TGI [54] was 5.21 µM. It also gave a GI50 [55] of 0.675 µM, a TGI [55] of 4.17 µM and a GI50 [56] of 12.6 µM. It also gave a TGI [56] of 39.2 µM.
